Experimental findings from patent US6890708B2, “Method for improving the quality of sperm for artificial insemination of animals” (priority 2000, dated 2005) are described below.

What all share (format): cell-based, pig
In data set [1] the test system is Polymorphonuclear Neutrophils (PMN). The data set can be described thus: In vitro phagocytosis of boar sperm by PMN (phagocytosis assay). As to conditions: for % of phagocytosed sperm: Exp. 1, preincubated 30 min. at 38° C. As to the method: Tyrode's medium was used as described as “standard Tyrode's medium” in […] et al. ([…], Harrison, R A P, Miller, N G A, Topper, E K, and Woelders, H, 1998, Enhanced Binding of Zona Pellucida Proteins to the Acrosomal Region of Intact Boar Spermatozoa in Response to Fertilizing Conditions: A Flow Cytometric Study. […] Serum was prepared from blood collected from 11 primiparous sows, pooled, and frozen in aliquots at -80° C. Per experiment, 20 ml peripheral blood of a single Dutch Landrace sow (each experiment a different sow) was collected in heparinized vacutainers (Venoject, Omnilabo, Breda, The Netherlands). The peripheral blood was subsequently diluted with an equal volume of phosphate buffered saline (PBS). […] The supernatant, including the mononuclear cells at the interface, was removed. The pellet was resuspended in 2 ml of ice-cold distilled water to lyse the erythrocytes. […] The PMNs were pelleted by centrifugation for 10 min at 400×g and the lysis procedure was repeated. […] All cell suspensions were pooled together, mixed well, and subjected to centrifugation. The PMN were resuspended in TM-s with inactivated complement, and the cell concentration was determined using a hemocytometer. The PMN preparation was stored overnight at 4° C. […] The viability, assessed by trypan blue exclusion, was >98%. Semen was obtained from Dutch A.I. stations. Per experiment, semen was used from a single Yorkshire breeding boar (each experiment a different boar). At the AI-station, the semen was diluted to a concentration of approximately 30×10^6 cells/ml in Beltsville Thawing Solution (BTS) (Johnson et al., 1988). The diluted semen was stored at 17° C. for up to 48 hours, until the diluted semen sample was used. […] Aliquots of 80 μl of the PMN suspension (see, PMN isolation and preparation of PMNs) in TM or TM-s, with either intact or inactivated complement, were transferred to a 96-well polystyrene microtest plate. […] The samples were incubated with gentle swirling on a test plate shaker. […] The heparin facilitates dissociation of agglutinated PMNs. The samples were thoroughly mixed, left for 15 min., and mixed again. […] The frozen-thawed semen was taken from a large stock of semen from one ejaculate and washed 3 times in PBS prior to use. […] The mounts enabled observation and counting of fluorescently labeled spermatozoa inside and outside the phagocytes. By focusing at different levels in the mount, spermatozoa that were located above or below the PMN could be distinguished from those that were phagocytosed. In many PMNs that had ingested a spermatozoon, the presence of the sperm nucleus or tail caused a conspicuous change of the shape of the PMN. Two hundred spermatozoa were evaluated and classified as inside or outside the PMN (i.e., phagocytosed or not phagocytosed). The same fixed mounts were used to assess the acrosome morphology of the non-phagocytosed spermatozoa at the moment of fixation.

For data set [2], the system named is boar spermatozoa. In words: Sperm viability in vitro (motility, acrosome morphology), Example I. To be noted: Exp. 1. As to the method:
Aliquots of 80 μl of the PMN suspension (see, PMN isolation and preparation of PMNs) in TM or TM-s, with either intact or inactivated complement, were transferred to a 96-well polystyrene microtest plate. To each well, 20 μl of sperm suspension (see, preparation of semen samples) was added and the microtest plate was placed in a humidified incubator at 38° C. with 5% CO2 in air. […] The samples were incubated with gentle swirling on a test plate shaker. After 15, 30, 45, 60 or 90 min., samples were quantitatively transferred into tubes containing an equal volume of 40 mg ml^−1 heparin (Sigma) in PBS. The heparin facilitates dissociation of agglutinated PMNs. The samples were thoroughly mixed, left for 15 min., and mixed again. Subsamples of 75 μl were fixed by addition of 25 μl of 2% (v/v) glutaraldehyde (Fluka, Brunschwig chemie, Amsterdam, The Netherlands) in PBS. “Blank” samples, i.e., sperm without PMNs (80 μl TM-s mixed with 20 μl sperm suspension), were incubated in parallel to monitor sperm survival during the treatment. “Reference” samples, i.e., frozen-thawed (killed) semen, were incubated in parallel with the PMNs as a reference for the phagocytotic activity of the PMNs. The frozen-thawed semen was taken from a large stock of semen from one ejaculate and washed 3 times in PBS prior to use.
For evaluation of phagocytosis, wet mounts of the fixed samples were examined with a combination of phase-contrast and fluorescence microscopy (Olympus BH2, Tokyo, Japan) at 400× magnification. The mounts enabled observation and counting of fluorescently labeled spermatozoa inside and outside the phagocytes. By focusing at different levels in the mount, spermatozoa that were located above or below the PMN could be distinguished from those that were phagocytosed. […] Two hundred spermatozoa were evaluated and classified as inside or outside the PMN (i.e., phagocytosed or not phagocytosed). The same fixed mounts were used to assess the acrosome morphology of the non-phagocytosed spermatozoa at the moment of fixation. One hundred cells were classified using phase-contrast microscopy at 400× magnification, as NAR (normal apical ridge), NAR' (slightly altered normal apical ridge), DAR (damaged apical ridge), MAR (missing apical ridge) and LAC (loose acrosomal cap), as described by Pursel et al. (Pursel V G, Schulman L L and Johnson L A, 1978, Distribution and morphology of fresh and frozen-thawed sperm in the reproductive tract of gilts after insemination Biology of Reproduction 19 69-76.)

Data set [3] has as its system boar spermatozoa. The data set is described as above. As to conditions: Exp. 1; after adding active compound and pre-incubation 30 min. at 38° C.
The mark [4] stands for this setting: after adding active compound and pre-incubation 30 min. at 38° C.
[5] abbreviates: blank samples without PMN, (2x), phagocytosis time 30 min.
Setting [6] is: blank samples without PMN, preincubated 30 min. at 38° C., phagocytosis time 30 min.

As to heparin, in data set [1], the “phagocytosis of sperm by PMN in vitro, in words” value (shortened to “phagocytosis of sperm by PMN”) was “inhibited strongly”.

`CCCC(=O)Nc1ncnc2c1ncn2[C@@H]1O[C@@H]2COP(=O)(O)O[C@H]2[C@H]1OC(=O)CCC` [Db-cAMP, dibutyryl-cAMP]: the “% of phagocytosed sperm” value in data set [1] (0.1 mM, phagocytosis time 15 min) is reported as 35%; in data set [1] (0.1 mM, phagocytosis time 30 min), 59%; in data set [1] (0.1 mM, phagocytosis time 60 min) it was 60%; in data set [1] (0.1 mM, phagocytosis time 90 min), 65%; in data set [1] (0.2 mM, phagocytosis time 15 min), 47%; in data set [1] (0.2 mM, phagocytosis time 30 min), 47%. For the same compound, the “% of phagocytosed sperm” value came out at 58% in data set [1] (0.2 mM, phagocytosis time 60 min) and 54% in data set [1] (0.2 mM, phagocytosis time 90 min). In addition, the “% DAR” value in the data set on boar spermatozoa [2] (setting [4]) is on record as 23%. The “% LAC” value in the data set with boar spermatozoa [2] (setting [4]) stood at 08%; in the data set on boar spermatozoa [2] (setting [5]), 08%; with boar spermatozoa [2] (setting [6]), 06%. For the same compound, the “% MAR” value with boar spermatozoa [2] (setting [4]) was 02%. The entries for the “% NAR” value in the data set on boar spermatozoa [2] (setting [4]), with boar spermatozoa [2] (setting [5]) and with boar spermatozoa [2] (setting [6]) were 67%, 54% and 56%, respectively. Moreover, the “% MAR (second value of NAR-MAR-MAR-LAC)” value with boar spermatozoa [2] (setting [5]) and in the data set on boar spermatozoa [2] (setting [6]) was 36% each time. Further, the “% MAR (third value of NAR-MAR-MAR-LAC)” value in the data set on boar spermatozoa [2] (setting [5]) and in the data set on boar spermatozoa [2] (setting [6]) was 02% in each case. The “% motile sperm” value with boar spermatozoa [3] is reported as 60%.

`O=C(O)CN(CCN(CC(=O)O)CC(=O)O)CC(=O)O` [EDTA]: the “phagocytosis of sperm by PMN” value in data set [1] is “reduce phagocytosis of sperm in vitro”.

For `Nc1ncnc2c1ncn2[C@@H]1O[C@@H]2COP(=O)(O)O[C@H]2[C@H]1O` [cAMP, cyclic Adenosine MonoPhosphate], the “phagocytosis of sperm by PMN” value in data set [1] was “inhibits the phagocytosis of sperm in vitro”.
